Test [1] concerns allogeneic cell transplant response (T-cell-mediated immune response, popliteal lymph node). Put plainly: Allogeneic cell transplant response in mice (popliteal lymph node weight). The test is classed as in vivo, mice (DBA donors, C57B1/6 recipients). The following applies: dosed one hour prior to cell injection and daily thereafter, ~four days. From the text: Allogeneic Cell Transplant Response in Mice
The ability of cells to recognize other cells from self or from another genetically different individual (non-self) is an important property in maintaining the integrity of tissue and organ structure. The allogeneic cell transplant response is therefore an important model for studies of transplant rejection. This T-cell-mediated immune response can be induced in adult mice by the injection of lymphocytes from an histoincompatible mouse strain. This response is characterized by T cell proliferation which is limited to the popliteal lymph node that receives drainage from the footpad area. No in vitro system exists that can exactly duplicate completely this in vivo response. The assay is commonly used to evaluate new and novel potential immunosuppressive molecules.
Experiments are conducted using male or female mice (20-26 grams). Any histoincompatible mouse strains suffice for donor and recipient populations. Typically DBA mice are used as donors and C57B1/6 mice are used as recipients. A minimum of 1 week stabilization and conditioning period is usually required before use of the mice. Each study utilizes approximately 36 recipient mice divided into groups of 6.
Donor mice are sacrificed by CO2 asphyxiation and spleens are removed and a cell suspension is prepared. The cell suspension (1.0×10^7/metatarsal in 0.05 ml) is injected I.D. into the dorsal metatarsal skin of recipient mice. Four days later, the animals are sacrificed by CO2 asphyxiation and the popliteal nodes are removed and weighed. Groups of mice receiving putative immunosuppressive agents are dosed subcutaneously,intraperitoneally or orally one hour prior to cell injection and daily thereafter. The tests last approximately four days. The assay involves no footpad swelling and only a moderate increase in the size of the popliteal lymph node. Student's t test is used to determine significant differences between popliteal lymph nodes of groups of untreated mice and those mice treated with putative immunosuppressive agents.

Another test deals with IL-2 promoter. Put plainly: IL-2 promoter assay (luciferase reporter in Jurkat cells). The test is classed as cell-based. The following applies: Homo sapiens; Jurkat luciferase reporter cells, ionomycin 1 μg/ml and PMA 10 ng/ml, 5 hr; read-out: IL-2 PROMOTER IC50. The source says: All the known regulatory features of IL-2 gene are contained within a ~300 bp sequence immediately upstream of the open reading frame. […] The resulting construct, pIL2P-luc, and a vector containing a neomycin resistance gene, pcDNA/Neo (Invitrogen), are linearized and stably transfected into Jurkat cells (a human T cell line) by electroporation.
For screening compounds, the cells are pelleted by centrifugation, washed once with PBS, resuspended in RPMI (phenol red-free) containing 5% FBS, and dispensed into 96-well, white microtiter plates (Packard) at 50,000 cells/well. The cells are pre-incubated with compounds (1 μg/ml) for 15 min prior to addition of ionomycin (1 μg/ml) and PMA (10 ng/ml) in a final volume of 100 μl. Following a 5 hr incubation at 37° C. in a humidified incubator, 100 μl of Luc-Lite lysis buffer/luciferase assay buffer (Promega) is added and luminescence measured using a Packard TopCount scintillation counter/luminometer.
A general note: A reporter such as luciferase makes a cellular process visible.

In test [2] the test system is IL-2 production in CD3+/CD4+ cells. Put plainly: IL-2 production assay, Protocol A (ionomycin and PMA as stimuli). The test is classed as cell-based. The following applies: human CD3+/CD4+ cells, ionomycin 1 μg/ml and PMA 10 ng/ml, 16 hr. On the procedure: Protocol A (ionomycin and […] as stimuli)
Human peripheral blood is obtained from healthy donors by venipuncture and the mononuclear cell fraction is prepared by centrifugation on Ficoll Hypaque (Phamacia) density gradients. Contaminating red blood cells are lysed and the CD3+/CD4+ cells are purified using immunoaffinity columns (R&D Systems or CellPro). The cells are resuspended and dispensed in 96 well microtiter plates. Test compounds are added to the cells approximately 15 minutes prior to stimulation with ionomycin (1 μg/ml) and PMA (10 ng/ml). The final volume of the assay is 100 μL. Following a 16 hr incubation at 37° C., the cells are pelleted by centrifugation, and the supernatants are collected and stored at -70° C. until assayed for IL-2 using a commercial ELISA kit (Genzyme).

Test [3] has as its system IL-2 production in T lymphocytes (CD3+/CD4+ cells). The test can be described thus: IL-2 production assay, Protocol B (antiCD3/antiCD28 as stimuli). The following applies: T-lymphocyte; human T lymphocytes, anti-CD3/anti-CD28 and goat anti-mouse coated beads, 16 hour. The test is classed as cell-based. How it is done:
Protocol B (antiCD3/antiCD28 as stimuli)
Human peripheral blood is obtained from healthy donors by venipuncture and the mononuclear cell fraction is prepared by centrifugation on Ficoll Hypaque (Phamacia) density gradients. Contaminating red blood cells are lysed and the CD3+/CD4+ cells are purified using immunoaffinity columns (R&D Systems or CellPro). The T lymphocytes are plated at 1-1.5×10^5 cells/well in a 96 well microtiter plate, and incubated with serial dilutions of compounds for 20 minutes at 37° C. The T cells are activated by the addition of 0.6 ng/ml anti-CD3 (Immunotech), 500 ng/ml anti-CD28 (Biodesign) and 2×10^5 goat anti-mouse coated beads (Dynal). The final volume of the assay is 200 μl. Following a 16 hour incubation at 37° C., the cells are pelleted, and the supernatants are removed and collected and stored at -70° C. until assayed for interleukin-2 using a commercial ELISA kit (R&D Systems).

For test [4], the system named is Ca^+2 influx in Jurkat cells (clone E6-1). Put plainly: Calcium influx assay (thapsigargin-stimulated, Fluo-3). The test is classed as cell-based. Conditions: Homo sapiens; Jurkat cells clone E6-1, thapsigargin 100 nM, 10 min preincubation. How it is done:
Jurkat cells (clone E6-1) are pelleted by centrifugation, washed twice, and resuspended in RPMI 1640 containing, […], 1 % fetal calf serum, 3 μM Fluo-3-AM, 13.5 μl/ml Pluronic F 127 (Molecular Probes) and incubated for 1 hour at 37° C. The loaded cells are washed twice in Hanks Balanced Salt Solution containing 10 mM HEPES. The cells are resuspended in HBSS containing 10 mM HEPES, and dispensed into 96-well Dynatech black microtiter plates at 2×10^5 cells/well. The cells are preincubated with compounds for 10 minutes at room temperature. Baseline fluorescence of unstimulated cells is measured using an SLT fluorescent microtiter plate reader with an excitation wavelength of 495 nm and emission wavelength of 538 nm. Thapsigargin is then added to a final concentration of 100 nM. Following a 5 minute incubation, fluorescence of thapsigargin treated cells is measured. Delta fluorescence values are determined by subtracting baseline fluorescence values from thapsigargin induced fluorescence values.

A word on the IC50: it is the concentration needed to halve the response being measured. Consider `Cc1ccc(-c2cncc3[nH]c4ccccc4c23)cc1` [Compound 1, 4-(p-Methylphenyl)-β-carboline], for which the “ALLOGENEIC CELL TRANSPLANT %” value in test [1] (1 mg/kg) came to 38%. The IC50 was 1.5 µM in the test with IL-2 promoter, 2 µM in test [2], 6.2 µM in test [3] and 0.3 µM in test [4].

As for `COc1ccc(-c2cncc3[nH]c4ccccc4c23)cc1` [Compound 5, 4-(p-Methoxyphenyl)-β-carboline], the “ALLOGENEIC CELL TRANSPLANT %” value in test [1] (1 mg/kg) stood at 60%. The IC50 stood at 1.09 µM in the test on IL-2 promoter, 1 µM in test [2], 4.2 µM in test [3] and 0.3 µM in test [4].

Consider `CCOc1ccc(-c2cncc3[nH]c4ccccc4c23)cc1` [Compound 12], for which, in test [1] (1 mg/kg), the “ALLOGENEIC CELL TRANSPLANT %” value is 49%. Besides, the IC50 was 0.3 µM in test [2], 4.5 µM in test [3] and 1.2 µM in test [4].

In the case of `FC(F)(F)c1ccc(-c2cncc3[nH]c4ccccc4c23)cc1` [Compound 4, 4-(p-Trifluoromethylphenyl)-β-carboline], in test [1] (0.1 mg/kg), the “ALLOGENEIC CELL TRANSPLANT %” value was determined as 38%. For the same molecule, the IC50 came to 0.23 µM with IL-2 promoter, 0.3 µM in test [2], 3.4 µM in test [3] and 0.5 µM in test [4].

In the case of `COc1cccc(-c2cncc3[nH]c4ccccc4c23)c1` [Compound 7], the “ALLOGENEIC CELL TRANSPLANT %” value in test [1] (1 mg/kg) is listed as 49%. Moreover, the IC50 came to 3 µM with IL-2 promoter, 5 µM in test [2], 9.8 µM in test [3] and 0.7 µM in test [4].

The values are drawn from patent US6093723A, “4-substituted beta-carbolines and analogs thereof” (Boehringer Ingelheim Pharmaceuticals, Inc., priority 1997, dated 2000).
